Reference: paper PMC10811921 (Virology Journal, 2024)

Molecular target: T1, furin (Homo sapiens, UniProt P09958)
T1 construct: recombinant soluble human furin
Test: fluorogenic protease assay with Pyr-RTKR-AMC substrate
Format: biochemical

T1 sequence (P09958 108-715): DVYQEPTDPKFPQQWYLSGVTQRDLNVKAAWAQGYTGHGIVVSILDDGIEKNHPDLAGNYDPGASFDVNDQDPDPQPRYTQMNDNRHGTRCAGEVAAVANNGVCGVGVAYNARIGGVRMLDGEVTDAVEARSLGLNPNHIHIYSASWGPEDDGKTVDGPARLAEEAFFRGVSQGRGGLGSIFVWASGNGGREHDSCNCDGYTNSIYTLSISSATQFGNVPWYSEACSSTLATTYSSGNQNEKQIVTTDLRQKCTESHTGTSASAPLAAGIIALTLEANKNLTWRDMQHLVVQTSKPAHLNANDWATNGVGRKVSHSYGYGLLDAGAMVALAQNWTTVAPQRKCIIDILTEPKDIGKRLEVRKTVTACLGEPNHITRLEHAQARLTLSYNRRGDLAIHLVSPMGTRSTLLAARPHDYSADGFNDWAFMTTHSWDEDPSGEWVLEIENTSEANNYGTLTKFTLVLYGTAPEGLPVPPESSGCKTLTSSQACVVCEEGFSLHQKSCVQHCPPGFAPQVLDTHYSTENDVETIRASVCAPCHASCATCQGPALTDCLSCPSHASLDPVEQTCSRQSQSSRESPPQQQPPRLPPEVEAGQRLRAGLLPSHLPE

O=c1c(O)c(-c2ccc(O)c(O)c2)oc2cc(O)cc(O)c12 [QC, quercetin]
IC50: ~116 µM
